Experimental data taken from PMC3057096 (Bioorganic & medicinal chemistry, 2010).
Blank lines part the entries; values can stand above or below the compound they belong to.

Assays:
[1] = tested on: P. falciparum (W2); assay type: cell-based; settings: Plasmodium falciparum, W2, read-out: P. falciparum (W2) IC50
[2] = tested on: P. falciparum (D6); assay type: cell-based; settings: Plasmodium falciparum, D6, read-out: P. falciparum (D6) IC50
[3] = tested on: P. berghei (sensitive strain); experiment: In vivo blood-schizontocidal antimalarial activity, rodent malaria model; set-up: species or system mice; settings: for P. berghei: mice cured: dose of 25 mg/kg
[4] = tested on: Staphylococcus aureus; experiment: In vitro antibacterial susceptibility testing; assay type: cell-based; settings: read-out: S. aureus IC50, 50% growth inhibition
[5] = tested on: methicillin-resistant Staphylococcus aureus ATCC 43300 (MRSA); experiment: In vitro antibacterial susceptibility testing; assay type: cell-based; settings: ATCC43300|MRSA, read-out: MRSA MIC, NA = no activity at highest test concentration of 20 μg/mL
[6] = rodents; cited from earlier work
[7] = tested on: β-hematin (BH) formation; experiment: Inhibition of β-hematin; assay type: biochemical; settings: read-out: BH inhibition IC50
[8] = cited from earlier work

Structure (SMILES): COc1cc(NC(C)CCCNC(=O)N[C@@H](CCCNC(=N)N)C(=O)NCCCC(C)Nc2cc(OC)cc3cccnc23)c2ncccc2c1.Cl (stereo partly drawn) [Compound 36, N-{4-[(6-methoxyquinolin-8-yl)amino]pentyl}-N^2-({4-[(6-methoxyquinolin-8-yl)-amino]pentyl}carbamoyl)-D-argininamide·3HCl]
IC50 [1]: 1.8 µg/mL | IC50 [2]: 3.2 µg/mL | P. berghei in vivo activity class ([3]; 50 mg/kg/day × 4, oral): Inactive | P. berghei in vivo activity class ([3]; 100 mg/kg/day × 4, oral): Curative

Structure (SMILES): COc1cc(NC(C)CCCNC(=O)N[C@@H](CCCN)C(=O)NCCCC(C)Nc2cc(OC)cc3cccnc23)c2ncccc2c1.Cl (stereo partly drawn) [Compound 37, N-{4-[(6-methoxyquinolin-8-yl)amino]pentyl}-N^2-({4-[(6-methoxyquinolin-8-yl)-amino]pentyl}carbamoyl)-D-ornithinamide·3HCl]
P. berghei in vivo activity class ([3]; 100 mg/kg/day × 4, oral): Inactive

IC50 [2]: 3.6 µg/mL
Structure (SMILES): COc1cc(NC(C)CCCNC(=O)N[C@H](CCCCN)C(=O)NCCCC(C)Nc2cc(OC)cc3cccnc23)c2ncccc2c1.Cl (stereo partly drawn) [Compound 38, N-{4-[(6-methoxyquinolin-8-yl)amino]pentyl}-N^2-({4-[(6-methoxyquinolin-8-yl)-amino]pentyl}carbamoyl)-L-lysinamide·3HCl]

IC50 [1]: 3.2 µg/mL
Structure (SMILES): COc1cc(NC(C)CCCNC(=O)N[C@@H](CCCN)C(=O)NCCCC(C)Nc2cc(OC)cc3ccc(C(C)(C)C)nc23)c2nc(C(C)(C)C)ccc2c1.Cl (stereo partly drawn) [Compound 42, N-{4-[(2-tert-butyl-6-methoxyquinolin-8-yl)amino]pentyl}-N^2-({4-[(2-tert-butyl-6methoxyquinolin-8-yl)amino]pentyl}carbamoyl)-D-ornithinamide·3HCl]

Structure (SMILES): COc1cc(NC(C)CCCNC(=O)N[C@H](CCCCN)C(=O)NCCCC(C)Nc2cc(OC)cc3ccc(C(C)(C)C)nc23)c2nc(C(C)(C)C)ccc2c1.Cl (stereo partly drawn) [Compound 43, N-{4-[(2-tert-butyl-6-methoxyquinolin-8-yl)amino]pentyl}-N^2-({4-[(2-tert-butyl-6methoxyquinolin-8-yl)amino]pentyl}carbamoyl)-L-lysinamide·3HCl]
IC50 [2]: 1.6 µg/mL | P. berghei in vivo activity class ([3]; 100 mg/kg/day × 4, oral): Suppressive | IC50 [4]: 1.78 to 2.73 µg/mL

Structure (SMILES): COc1cc(NC(C)CCCNC(=O)CC[C@H](N)C(=O)NCCCC(C)Nc2cc(OC)cc3cccnc23)c2ncccc2c1.Cl (stereo partly drawn) [Compound 61, N^1,N^5-Bis{4-[(6-methoxyquinolin-8-yl)amino]pentyl}-L-glutamamide·3HCl]
IC50 [1]: 2.2 µg/mL | IC50 [2]: 2.7 µg/mL | P. berghei in vivo activity class ([3]; 10 mg/kg/day × 4, oral): Suppressive | P. berghei in vivo activity class ([3]; 25 mg/kg/day × 4, oral): Curative | P. berghei in vivo activity class ([3]; 50 mg/kg/day × 4, oral): Curative | P. berghei in vivo activity class ([3]; 100 mg/kg/day × 4, oral): Curative | P. berghei: mice cured [3]: 100%

Structure (SMILES): COc1cc(NC(C)CCCNC(=O)C[C@H](N)C(=O)NCCCC(C)Nc2cc(OC)cc3ccc(C(C)(C)C)nc23)c2nc(C(C)(C)C)ccc2c1.Cl (stereo partly drawn) [Compound 62, N^1,N^4-Bis{4-[(2-tert-butyl-6-methoxyquinolin-8-yl)amino]pentyl}-L-aspartamide·3HCl]
IC50 [1]: 3.2 µg/mL | P. berghei in vivo activity class ([3]; 100 mg/kg/day × 4, oral): Inactive

Structure (SMILES): COc1cc(NC(C)CCCNC(=O)CC[C@H](N)C(=O)NCCCC(C)Nc2cc(OC)cc3ccc(C(C)(C)C)nc23)c2nc(C(C)(C)C)ccc2c1.Cl (stereo partly drawn) [Compound 63, N^1,N^5-Bis{4-[(2-tert-butyl-6-methoxyquinolin-8-yl)amino]pentyl}-L-glutamamide·3HCl]
P. berghei in vivo activity class ([3]; 100 mg/kg/day × 4, oral): Inactive

IC50 [1]: 3.6 µg/mL
Structure (SMILES): COc1cc(NC(C)CCCNC(=O)C[C@@H](N)C(=O)NCCCC(C)Nc2cc(OC)cc3cccnc23)c2ncccc2c1.Cl (stereo partly drawn) [Compound 64, N^1,N^4-Bis{4-[(6-methoxyquinolin-8-yl)amino]pentyl}-D-aspartamide·3HCl]

Structure (SMILES): COc1cc(NC(C)CCCNC(=O)NCCCC(C)Nc2cc(OC)cc3cccnc23)c2ncccc2c1.Cl.Cl (centres unmarked) [Compound 66, 1,3-Bis{4-[(6-methoxyquinolin-8-yl)amino]pentyl}urea·2HCl]
P. berghei in vivo activity class ([3]; 100 mg/kg/day × 4, oral): Inactive

MIC [5]: 5 to 20 µg/mL
Structure (SMILES): COc1cc(NC(C)CCCNC(=S)NCCCC(C)Nc2cc(OC)cc3cccnc23)c2ncccc2c1.Cl.Cl (centres unmarked) [Compound 67, 1,3-Bis{4-[(6-methoxyquinolin-8-yl)amino]pentyl}thiourea·2HCl]

Structure (SMILES): COc1cc(NC(C)CCCNC(=O)NCCCC(C)Nc2cc(OC)cc3ccc(C(C)(C)C)nc23)c2nc(C(C)(C)C)ccc2c1.Cl.Cl (centres unmarked) [Compound 68, 1,3-Bis{4-[(2-tert-butyl-6-methoxyquinolin-8-yl)amino]pentyl}urea·2HCl]
IC50 [1]: 3.7 µg/mL | P. berghei in vivo activity class ([3]; 100 mg/kg/day × 4, oral): Inactive

MIC [5]: 5 to 20 µg/mL
Structure (SMILES): CCCCCOc1c(OC)cc(NC(C)CCCNC(=S)NCCCC(C)Nc2cc(OC)c(OCCCCC)c3c(CC)ccnc23)c2nccc(CC)c12.Cl.Cl (centres unmarked) [Compound 71, 1,3-Bis{4-[4-ethyl-6-methoxy-5-(pentyloxy)quinolin-8-ylamino]pentyl}-thiourea·2HCl]

Structure (SMILES): COc1cc(NC(C)CCCNC(=O)NC(=O)NCCCC(C)Nc2cc(OC)cc3cccnc23)c2ncccc2c1.Cl.Cl (centres unmarked) [Compound 74, N,N′-Bis{4-[(6-methoxyquinolin-8-yl)amino]pentyl}dicarbonimidic diamide·2HCl]
P. berghei in vivo activity class ([3]; 100 mg/kg/day × 4, oral): Inactive

Structure (SMILES): COc1cc(NC(C)CCCNCOC(=O)NCCCC(C)Nc2cc(OC)cc3cccnc23)c2ncccc2c1.Cl.Cl (centres unmarked) [Compound 76, ({4-[(6-Methoxyquinolin-8-yl)amino]pentyl}amino)methyl{4-[(6-methoxy-quinolin-8-yl)amino]pentyl}carbamate·2HCl]
P. berghei in vivo activity class ([3]; 100 mg/kg/day × 4, oral): Suppressive

Structure (SMILES): COc1cc(NC(C)CCCNCCNCCNCCCC(C)Nc2cc(OC)cc3cccnc23)c2ncccc2c1.Cl.Cl (centres unmarked) [Compound 79, N^1,N^1′-(iminodiethane-2,1-diyl)bis[N^4-(6-methoxyquinolin-8-yl)pentane-1,4-diamine]·2HCl]
P. berghei in vivo activity class ([3]; 10 mg/kg/day × 4, oral): Suppressive | P. berghei in vivo activity class ([3]; 25 mg/kg/day × 4, oral): Curative | P. berghei in vivo activity class ([3]; 50 mg/kg/day × 4, oral): Curative | P. berghei in vivo activity class ([3]; 100 mg/kg/day × 4, oral): Curative | P. berghei: mice cured [3]: 100%

IC50 [1]: 1.8 µg/mL | IC50 [2]: 2.7 µg/mL
Structure (SMILES): COc1cc(NC(C)CCCNC(=O)c2cncc(C(=O)NCCCC(C)Nc3cc(OC)cc4ccc(C(C)(C)C)nc34)c2)c2nc(C(C)(C)C)ccc2c1.Cl (centres unmarked) [Compound 85, N,N′-Bis{4-[(2-tert-butyl-6-methoxyquinolin-8-yl)amino]pentyl}pyridine-3,5-dicarboxamide·3HCl]

Structure (SMILES): COc1cc(NC(C)CCCN)c2ncccc2c1 (centres unmarked) [PQ, primaquine]
time at which two major metabolites start appearing in the blood [6]: about 30 min | IC50 [7]: > 1 mM | half life [8]: 4 to 6 h
